Where “and” joins values, the source holds several entries; their conditions need not be identical. Equal entries are not always repeated.

By IC50 is commonly meant the concentration that inhibits the measured activity by half. High values mean weaker potency in that assay, low ones greater potency in that assay.
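Note: Cell-free human ACSS2 enzyme reaction with acetate, CoA and ATP, 90 min at 37 C, coupled to pyrophosphatase, phosphate release detected by Biomol Green absorbance at 620 nm.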

The experiment deals with ACSS2 (Homo sapiens, UniProt Q9NR19). Kind of experiment: biochemical.
ACSS2, sequence (Q9NR19 whole entry): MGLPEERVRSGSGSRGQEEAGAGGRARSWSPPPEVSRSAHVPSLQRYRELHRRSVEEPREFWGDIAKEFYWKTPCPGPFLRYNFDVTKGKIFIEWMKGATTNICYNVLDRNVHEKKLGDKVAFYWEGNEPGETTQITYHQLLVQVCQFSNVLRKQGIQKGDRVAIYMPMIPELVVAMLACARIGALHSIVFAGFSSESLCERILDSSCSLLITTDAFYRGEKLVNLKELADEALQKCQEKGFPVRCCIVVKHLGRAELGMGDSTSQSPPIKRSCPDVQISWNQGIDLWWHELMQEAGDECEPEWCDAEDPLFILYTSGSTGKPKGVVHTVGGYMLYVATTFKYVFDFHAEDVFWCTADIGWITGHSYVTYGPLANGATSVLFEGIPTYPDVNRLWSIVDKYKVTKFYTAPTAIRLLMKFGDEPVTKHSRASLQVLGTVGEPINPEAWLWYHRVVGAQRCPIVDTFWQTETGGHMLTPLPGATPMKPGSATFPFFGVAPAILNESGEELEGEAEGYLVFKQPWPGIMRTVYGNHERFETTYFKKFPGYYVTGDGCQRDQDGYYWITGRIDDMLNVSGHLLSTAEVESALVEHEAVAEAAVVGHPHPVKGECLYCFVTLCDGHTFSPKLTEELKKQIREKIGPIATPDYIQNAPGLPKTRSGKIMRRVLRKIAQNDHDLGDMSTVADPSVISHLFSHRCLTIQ
Protocol: ACSS2 Cell-Free Activity Assay (Cell-Free IC50)
The assay is based on a coupling reaction with Pyrophosphatase: ACSS2 is converting ATP+CoA+Acetate=>AMP+pyrophosphate+Acetyl-CoA (Ac-CoA). Pyrophosphatase converts pyrophosphate, a product of the ACSS2 reaction, to phosphate which can be detected by measuring the absorbance at 620 nm after incubation with the Biomol green reagent (Enzo life Science, BML-AK111).
Cell-free IC50 Determination:
At the end of the reaction, Biomol Green was added for 30 minutes at RT and the activity was measured by reading the absorbance at 620 nm.
In turn, `CC1=NN(c2ccccc2)C(=O)C1C(=O)Nc1cccc(C(C)C)c1` (centres unmarked) [compound 100, N-(3-isopropylphenyl)-3-methyl-5-oxo-1-phenyl-4,5-dihydro-1H-pyrazole-4-carboxamide] registered an IC50 of 100 to 1000 nM.

In turn, `CC1=NN(c2ccccc2)C(=O)C1C(=O)Nc1cccc(-c2cccs2)c1` (centres unmarked) [compound 101, 3-methyl-5-oxo-1-phenyl-N-(3-(thiophen-2-yl)phenyl)-4,5-dihydro-1H-pyrazole-4-carboxamide] gave an IC50 of 6 to 100 nM.

Compound `CC1=NN(c2ccccc2)C(=O)C1C(=O)Nc1cccc(-c2ccccc2)c1` (centres unmarked) [compound 102, N-([1,1′-biphenyl]-3-yl)-3-methyl-5-oxo-1-phenyl-4,5-dihydro-1H-pyrazole-4-carboxamide] gave an IC50 of 100 to 1000 nM.

For the compound `COCc1cccc(NC(=O)C2C(=O)N(c3ccccc3)N=C2C)c1` (centres unmarked) [compound 103, N-(3-(methoxymethyl)phenyl)-3-methyl-5-oxo-1-phenyl-4,5-dihydro-1H-pyrazole-4-carboxamide], the concentration for half-maximal inhibition (IC50) is 100 to 1000 nM and 6 to 100 nM.

With `CC1=NN(c2ccccc2)C(=O)C1C(=O)Nc1cccc(-c2ccncc2)c1` (centres unmarked) [compound 104, 3-methyl-5-oxo-1-phenyl-N-(3-(pyridin-4-yl)phenyl)-4,5-dihydro-1H-pyrazole-4-carboxamide], the IC50 fell in the range of 1000 to 100000 nM.

Compound `CC1=NN(c2ccccc2)C(=O)C1C(=O)Nc1ccc(S(=O)(=O)N(C)C)cc1` (centres unmarked) [compound 105, N-(4-(N,N-dimethylsulfamoyl)phenyl)-3-methyl-5-oxo-1-phenyl-4,5-dihydro-1H-pyrazole-4-carboxamide] came in with an IC50 of 1000 to 100000 nM.

With `CC1=NN(c2ccccc2)C(=O)C1C(=O)NC1CCOC1` (centres unmarked) [compound 106, 3-methyl-5-oxo-1-phenyl-N-(tetrahydrofuran-3-yl)-4,5-dihydro-1H-pyrazole-4-carboxamide], the concentration for half-maximal inhibition (IC50) is above 100000 nM.

For `CC1=NN(c2ccc(S(=O)(=O)N(C)C)cc2)C(=O)C1C(=O)Nc1ccccc1` (centres unmarked) [compound 110, 1-(4-(N,N-dimethylsulfamoyl)phenyl)-3-methyl-5-oxo-N-phenyl-4,5-dihydro-1H-pyrazole-4-carboxamide], the IC50 lay within 100 to 1000 nM.

Compound `CC1=NN(c2ccccc2)C(=O)C1C(=O)Nc1cccc(CO)c1` (centres unmarked) [compound 111, N-(3-(hydroxymethyl)phenyl)-3-methyl-5-oxo-1-phenyl-4,5-dihydro-1H-pyrazole-4-carboxamide] yielded an IC50 of 1000 to 100000 nM.

Compound `CC1=NN(c2ccccc2)C(=O)C1C(=O)NC1CCOCC1` (centres unmarked) [compound 112, 3-methyl-5-oxo-1-phenyl-N-(tetrahydro-2H-pyran-4-yl)-4,5-dihydro-1H-pyrazole-4-carboxamide] yielded an IC50 of 1000 to 100000 nM.

`CCOC(=O)c1cccc(NC(=O)C2C(=O)N(c3ccccc3)N=C2C)c1` (centres unmarked) [compound 113, Ethyl 3-(3-methyl-5-oxo-1-phenyl-4,5-dihydro-1H-pyrazole-4-carboxamido)benzoate] showed an IC50 of 6 to 100 nM.

`CC1=NN(c2ccccc2)C(=O)C1C(=O)Nc1cccc(C(C)(C)C)c1` (centres unmarked) [compound 115, N-(3-(tert-butyl)phenyl)-3-methyl-5-oxo-1-phenyl-4,5-dihydro-1H-pyrazole-4-carboxamide] returned an IC50 of 100 to 1000 nM.

`CC1=NN(c2ccccc2)C(=O)C1C(=O)Nc1cccc(C(=O)O)c1` (centres unmarked) [compound 116, 3-(3-methyl-5-oxo-1-phenyl-4,5-dihydro-1H-pyrazole-4-carboxamido)benzoic acid] yielded an IC50 of 1000 to 100000 nM.

`CCCCCc1cccc(NC(=O)C2C(=O)N(c3ccccc3)N=C2C)c1` (centres unmarked) [compound 118, 3-methyl-5-oxo-N-(3-pentylphenyl)-1-phenyl-4,5-dihydro-1H-pyrazole-4-carboxamide] yielded an IC50 of 1000 to 100000 nM.

Consider `CC(=O)c1cccc(NC(=O)C2C(=O)N(c3ccc(C(=O)O)cc3)N=C2C)c1` (centres unmarked) [compound 120, 4-(4-((3-acetylphenyl)carbamoyl)-3-methyl-5-oxo-4,5-dihydro-1H-pyrazol-1-yl)benzoic acid], for which the IC50 is 100 to 1000 nM.

With `CC1=NN(c2ccccc2)C(=O)C1C(=O)NC1CCNCC1` (centres unmarked) [compound 121, 3-methyl-5-oxo-1-phenyl-N-(4-piperidyl)-4H-pyrazole-4-carboxamide], the IC50 was 1000 to 100000 nM.

For `CC1=NN(c2ccccc2)C(=O)C1C(=O)Nc1ccc2c(c1)C(=O)OC2` (centres unmarked) [compound 122, 3-methyl-5-oxo-N-(3-oxo-1,3-dihydroisobenzofuran-5-yl)-1-phenyl-4,5-dihydro-1H-pyrazole-4-carboxamide], the IC50 was 1000 to 100000 nM.

Compound `CC(=O)c1cccc(NC(=O)C2C(=O)N(c3cccc(C(=O)O)c3)N=C2C)c1` (centres unmarked) [compound 123, 3-(4-((3-acetylphenyl)carbamoyl)-3-methyl-5-oxo-4,5-dihydro-1H-pyrazol-1-yl)benzoic acid] gave an IC50 of 100 to 1000 nM.

Compound `CCc1cccc(NC(=O)C2C(=O)N(c3ccncc3)N=C2C)c1` (centres unmarked) [compound 125, N-(3-ethylphenyl)-3-methyl-5-oxo-1-(pyridin-4-yl)-4,5-dihydro-1H-pyrazole-4-carboxamide] came in with an IC50 of 100 to 1000 nM.

Take `CCc1cccc(NC(=O)C2C(=O)N(c3ccccc3)N=C2c2ccccc2)c1` (centres unmarked) [compound 126, N-(3-ethylphenyl)-5-oxo-1,3-diphenyl-4,5-dihydro-1H-pyrazole-4-carboxamide]: the concentration for half-maximal inhibition (IC50) was in the range of 1000 to 100000 nM.

`CCc1cccc(NC(=O)C2C(=O)N(c3ccc(C(F)(F)F)cc3)N=C2C)c1` (centres unmarked) [compound 127, N-(3-ethylphenyl)-3-methyl-5-oxo-1-(4-(trifluoromethyl)phenyl)-4,5-dihydro-1H-pyrazole-4-carboxamide] returned an IC50 of 6 to 100 nM.

In turn, `CCc1cccc(NC(=O)C2C(=O)N(c3ccccc3)N=C2C(C)C)c1` (centres unmarked) [compound 128, N-(3-ethylphenyl)-3-isopropyl-5-oxo-1-phenyl-4,5-dihydro-1H-pyrazole-4-carboxamide] returned an IC50 of 1000 to 100000 nM.

For `CCc1cccc(NC(=O)C2C(=O)N(c3ccccc3)N=C2Cc2ccccc2)c1` (centres unmarked) [compound 129, 3-benzyl-N-(3-ethylphenyl)-5-oxo-1-phenyl-4,5-dihydro-1H-pyrazole-4-carboxamide], the concentration for half-maximal inhibition (IC50) lay in the range of 1000 to 100000 nM.

In the case of `CCc1cccc(NC(=O)C2C(=O)N(c3ccccc3)N=C2C(F)(F)F)c1` (centres unmarked) [compound 130, N-(3-ethylphenyl)-5-oxo-1-phenyl-3-(trifluoromethyl)-4,5-dihydro-1H-pyrazole-4-carboxamide], the IC50 was in the range of 1000 to 100000 nM.

`CC1=NN(c2ccccc2)C(=O)C1C(=O)Nc1cccc(CN(C)C)c1` (centres unmarked) [compound 131, N-(3-((dimethylamino)methyl)phenyl)-3-methyl-5-oxo-1-phenyl-4,5-dihydro-1H-pyrazole-4-carboxamide] returned an IC50 of 1000 to 100000 nM.

`CC1=NN(c2ccccc2)C(=O)C1C(=O)Nc1cccc(-c2cncnc2)c1` (centres unmarked) [compound 132, 3-methyl-5-oxo-1-phenyl-N-(3-(pyrimidin-5-yl)phenyl)-4,5-dihydro-1H-pyrazole-4-carboxamide] displayed a half-inhibitory concentration (IC50) of 100 to 1000 nM.

For the compound `CCc1cccc(NC(=O)C2C=NN(c3ccccc3)C2=O)c1` (centres unmarked) [compound 133, N-(3-ethylphenyl)-5-oxo-1-phenyl-4,5-dihydro-1H-pyrazole-4-carboxamide], the IC50 is 100 to 1000 nM.

`CCOc1ccc(N2N=C(C)C(C(=O)Nc3cccc(CC)c3)C2=O)cc1` (centres unmarked) [compound 134, 1-(4-ethoxyphenyl)-N-(3-ethylphenyl)-3-methyl-5-oxo-4,5-dihydro-1H-pyrazole-4-carboxamide] came in with a concentration for half-maximal inhibition (IC50) of 1000 to 100000 nM.

Compound `CCOC(=O)c1cc(NC(=O)C2C(=O)N(c3ccccc3)N=C2C)ccn1` (centres unmarked) [compound 135, ethyl 4-(3-methyl-5-oxo-1-phenyl-4,5-dihydro-1H-pyrazole-4-carboxamido)picolinate] displayed an IC50 of 100 to 1000 nM.

As to `CCC1=NN(c2ccccc2)C(=O)C1C(=O)Nc1cccc(CC)c1` (centres unmarked) [compound 136, 3-ethyl-N-(3-ethylphenyl)-5-oxo-1-phenyl-4,5-dihydro-1H-pyrazole-4-carboxamide], the IC50 was 1000 to 100000 nM.

The compound `CCc1cccc(NC(=O)C2C(=O)N(c3ccccc3)N=C2c2ccncc2)c1` (centres unmarked) [compound 137, N-(3-ethylphenyl)-5-oxo-1-phenyl-3-(pyridin-4-yl)-4,5-dihydro-1H-pyrazole-4-carboxamide] yielded an IC50 of 1000 to 100000 nM.

On to `CC1=NN(c2ccccc2)C(=O)C1C(=O)Nc1cccc(S(=O)(=O)N(C)C)c1` (centres unmarked) [compound 139, N-(3-(N,N-dimethylsulfamoyl)phenyl)-3-methyl-5-oxo-1-phenyl-4,5-dihydro-1H-pyrazole-4-carboxamide], for which the IC50 fell in the range of 100 to 1000 nM.

Consider `CCc1cccc(NC(=O)C2C(=O)N(c3ccc(OCC4CC4)cc3)N=C2C)c1` (centres unmarked) [compound 143, 1-(4-(cyclopropylmethoxy)phenyl)-N-(3-ethylphenyl)-3-methyl-5-oxo-4,5-dihydro-1H-pyrazole-4-carboxamide], for which the IC50 was in the range of 6 to 100 nM.

Regarding `CCc1cccc(NC(=O)C2C(=O)N(c3ccc(NC(C)=O)cc3)N=C2C)c1` (centres unmarked) [compound 144, 1-(4-acetamidophenyl)-N-(3-ethylphenyl)-3-methyl-5-oxo-4,5-dihydro-1H-pyrazole-4-carboxamide], the IC50 lay in the range of 100 to 1000 nM.

Consider `CC1=NN(c2ccccc2)C(=O)C1C(=O)Nc1cccc(C2CCCC2)c1` (centres unmarked) [compound 146, N-(3-cyclopentylphenyl)-3-methyl-5-oxo-1-phenyl-4,5-dihydro-1H-pyrazole-4-carboxamide], for which the IC50 fell in the range of 100 to 1000 nM.

Consider `CC1=NN(c2ccccc2)C(=O)C1C(=O)Nc1cccc(CC(C)C)c1` (centres unmarked) [compound 147, N-(3-isobutylphenyl)-3-methyl-5-oxo-1-phenyl-4,5-dihydro-1H-pyrazole-4-carboxamide], for which the IC50 was 100 to 1000 nM.

Compound `CC1=NN(c2ccc(C(F)(F)F)cc2)C(=O)C1C(=O)Nc1cccc(-c2ncc[nH]2)c1` (centres unmarked) [compound 148, N-(3-(1H-imidazol-2-yl)phenyl)-3-methyl-5-oxo-1-(4-(trifluoromethyl)phenyl)-4,5-dihydro-1H-pyrazole-4-carboxamide] displayed an IC50 of 6 to 100 nM.

`CC1=NN(c2ccc(C(F)(F)F)cc2)C(=O)C1C(=O)Nc1cccc(-c2cnccn2)c1` (centres unmarked) [compound 150, 3-methyl-5-oxo-N-(3-(pyrazin-2-yl)phenyl)-1-(4-(trifuoromethyl)phenyl)-4,5-dihydro-1H-pyrazole-4-carboxamide] yielded an IC50 of 6 to 100 nM.

The record behind these values is patent US10851064B2, “ACSS2 inhibitors and methods of use thereof” (METABOMED LTD., priority 2017, dated 2020).
